Assay results published in the pKa sets of Baltruschat and Czodrowski (2020).

conditions: acidic group

Structure (SMILES)	pKa
CC1NCCc2c1[nH]c1ccc(N)cc21 (centres undefined)	16
O=C(O)C#CCl	1.89
O=[N+]([O-])c1cc(Cl)c(O)c(Cl)c1	3.7
O=C(O)C1CCCC1	4.99
O=C1CNC(=O)[C@H](Cc2ccc(O)cc2)N1	9.47
CN(C)C(=S)NCC(=O)O	3.71
Nc1c[nH]nc1[N+](=O)[O-]	9.5
N#CC(C#N)=NNc1ccc(Cl)cc1	6.15
O=COO	7.1
NC(=S)c1ccc(Br)cc1	12.5
Cc1nc2c(n1C)C(=O)c1nc[nH+]c(O)c1C2=O	1.15
CCC(CC)C1(CC)C(=O)[N-]C(=S)NC1=O	12.4
[NH3+]C(CC(=O)O)c1cccc[nH+]1 (centres undefined)	1.3
O=C(O)CC#Cc1ccccc1	3.44
CCOc1ccc(O)cc1	10.2
O=C(C[n+]1cccc2c3ccccc3ccc21)c1ccc(-c2ccccc2)cc1	11.2
Nc1nc2c(ncn2[C@@H]2C[C@@H](O)[C@H](CO)O2)c(O)[nH+]1	-0.97
CC1CCCC(=O)C1=O (centres undefined)	11.2
O=C(O)c1ccccc1Cl	2.95
CC(=O)c1ccccc1NN=C1C(=O)CC(C)(C)CC1=O	10.5
CCC(=O)c1cc(C(C)=O)n[nH]1	9.05

Structure (SMILES)	pKa
[NH3+]CCCC#CC#CCCC(=O)O	4.12
N#CC(C#N)=NNc1cccc(O)c1	6.45
Oc1cncnc1	6.78
CC[C@H](C)[C@H]([NH3+])C(=O)O	2.31
Cc1cc(O)ccc1C(=O)O	4.71
CC(=O)C(=NO)C(C)=O	7.44
Cc1c(Cn2cc[nH+]c2)sc2ccc(C(=O)O)cc12	3.82
CN(C)c1cccc(NC=S)c1	11.8
COc1csc(C(=O)O)c1	3.41
NC(=O)C1CCCCN1 (centres undefined)	8.9
Oc1ccc(/N=N/c2ccccc2)cc1	8.44
CCN(CC)CC(=N\O)/C(C)=N/O	10.7
N#CCC(=O)O	2.46
O=CC1CCCCC1=O (centres undefined)	6.35
Cc1cn([C@@H]2C[C@@H](O)[C@H](CO)O2)c(=O)[nH]c1=S	8.8
Oc1c(Cl)cc(Cl)c(Cl)c1C[NH+]1CCOCC1	4.84
Cc1cc(C)nc(NS(=O)(=O)c2ccc(N)cc2)n1	7.44
O=C([O-])/C=C/c1ccccc1O	9.63
COC(=O)CCS	9.33
CCc1cc(CC)c(OC)c(C(=O)NC[C@H]2CCC[NH+]2CC)c1O	7.24
Cn1cnc(C(=O)[O-])c1C(=O)O	3.9

Structure (SMILES)	pKa
O/N=C\c1ccccc1	11.3
O=C(O)CCCCc1ccccc1	4.88
Oc1ccc(Cl)cc1C[NH+]1CCCCC1	8.14
Cn1c(=O)c2[nH]c([N+](=O)[O-])nc2n(C)c1=O	3.58
O=C(O)C1c2ccccc2Oc2ccccc21	3.89
CC(C)(C#N)CC(=O)O	4.04
Cc1nccc2c1[nH]c1ccccc12	14.5
C[n+]1cccc(C(=O)O)c1	2.29
O=C(Nc1nnc(-c2ccccc2)s1)c1ccccc1	6.8
O=C(O)c1cc([N+](=O)[O-])cs1	2.83
Cc1ccc(O)c([O-])c1	13.3
Cc1cc2nc3ccc(N(C)C)cc3nc2cc1N	14.7
Sc1[nH+]ccc2ccccc12	-1.9
C=C(C)C(C)(C(N)=O)C(=O)O (centres undefined)	3.42
Cc1ncnc2c(O)cccc12	8.75
Cc1cc(Cc2cc(C)c(O)c(C)c2)c([O-])c([N+](=O)[O-])c1	11.1
N#Cc1ccccc1-c1nnn[nH]1	3.55
[NH3+]C(CCc1ccc([N+](=O)[O-])cc1)C(=O)O (centres undefined)	3.05
Oc1cccc(-c2ccccc2)c1	9.59
O=c1[nH]c2ccccc2[nH]c1=O	9.67
O=C(O)[C@H]1C[C@@H]1c1ccc([N+](=O)[O-])cc1	4.45

Structure (SMILES)	pKa
CSC(=O)C1c2ccccc2-c2ccccc21	10.5
CC/C=C/C(=O)O	4.69
COc1ccc(O)cc1[N+](=O)[O-]	8.68
CN(C)Cc1cc(C(C)(C)C)ccc1O	11.5
O=c1oc2c(O)c(O)cc3c(=O)oc4c(O)c(O)cc1c4c23	6.59
Cc1cc([N+](=O)[O-])ccc1O	7.1
S=c1[nH]c2cc3c(cc2[nH]1)CCCC3	10.4
CC[NH+]1CCC[C@@H]1CNC(=O)c1c(O)cccc1OC	8.7
[O-]/N=C1\CCCCC\C1=N/O	12.3
Cn1ncc2c(=O)[nH]cnc21	9.26
O=C1O[C@@H]([C@H](O)[C@@H](O)[C@@H](O)CO)C([O-])=C1O	12
Nc1nc[nH+]c(S)c1N	2.21
O=C([O-])C[NH+](CCNS(=O)(=O)c1ccc(CCBr)cc1)CC(=O)[O-]	7.75
CCC(=O)NOC(=O)/C=C/c1ccccc1	6.8
C=C=C(C)C(C)(C)C(=O)O	4.55
Cc1cccc(O)c1C(=O)O	3.35
CC1=CC(=O)C=C(C)C1=NO	8.04
Cc1ccc(=O)c(O)c(Br)c1	6.41
O=C([O-])c1ccccc1S	7.6
[NH3+]c1cccc(C(=O)O)c1	3.09
Cc1cc([N+](=O)[O-])cc2c1nnn2O	3.43
